Assay results from ChEMBL document CHEMBL4414672, “Synthesis of certain benzothieno[3,2-d]pyrimidine derivatives as a selective SIRT2 inhibitors” (Eur J Med Chem, 2020).

Assays:
Assay type in all cases: functional
HL-60(TB) = assay: Growth inhibition of human HL-60(TB) cells at 10^-5 M incubated for 48 hrs by sulforhodamine B assay; settings: HL-60, 48 h, read-out: GI
K562 = assay: Growth inhibition of human K562 cells at 10^-5 M incubated for 48 hrs by sulforhodamine B assay; settings: K562, 48 h, read-out: GI
MOLT-4 = assay: Growth inhibition of human MOLT4 cells at 10^-5 M incubated for 48 hrs by sulforhodamine B assay; settings: MOLT-4, 48 h, read-out: GI
SR = assay: Growth inhibition of human SR cells at 10^-5 M incubated for 48 hrs by sulforhodamine B assay; settings: read-out: GI
HOP-62 = assay: Growth inhibition of human HOP62 cells at 10^-5 M incubated for 48 hrs by sulforhodamine B assay; settings: HOP-62, 48 h, read-out: GI
NCI-H226 = assay: Growth inhibition of human NCI-H226 cells at 10^-5 M incubated for 48 hrs by sulforhodamine B assay; settings: NCI-H226, 48 h, read-out: GI
NCI-H23 = assay: Growth inhibition of human NCI-H23 cells at 10^-5 M incubated for 48 hrs by sulforhodamine B assay; settings: NCI-H23, 48 h, read-out: GI
NCI-H322M = assay: Growth inhibition of human NCI-H322M cells at 10^-5 M incubated for 48 hrs by sulforhodamine B assay; settings: read-out: GI
NCI-H460 = assay: Growth inhibition of human NCI-H460 cells at 10^-5 M incubated for 48 hrs by sulforhodamine B assay; settings: NCI-H460, 48 h, read-out: GI
COLO 205 = assay: Growth inhibition of human COLO205 cells at 10^-5 M incubated for 48 hrs by sulforhodamine B assay; settings: COLO 205, 48 h, read-out: GI
HCT-15 = assay: Growth inhibition of human HCT15 cells at 10^-5 M incubated for 48 hrs by sulforhodamine B assay; settings: HCT-15, 48 h, read-out: GI
SW-620 = assay: Growth inhibition of human SW620 cells at 10^-5 M incubated for 48 hrs by sulforhodamine B assay; settings: SW-620, 48 h, read-out: GI
SF-268 = assay: Growth inhibition of human SF268 cells at 10^-5 M incubated for 48 hrs by sulforhodamine B assay; settings: SF-268, 48 h, read-out: GI
SF-295 = assay: Growth inhibition of human SF295 cells at 10^-5 M incubated for 48 hrs by sulforhodamine B assay; settings: SF-295, 48 h, read-out: GI
SF-539 = assay: Growth inhibition of human SF539 cells at 10^-5 M incubated for 48 hrs by sulforhodamine B assay; settings: SF-539, 48 h, read-out: GI
SNB-19 = assay: Growth inhibition of human SNB19 cells at 10^-5 M incubated for 48 hrs by sulforhodamine B assay; settings: SNB-19, 48 h, read-out: GI
Malme-3M = assay: Growth inhibition of human MALME-3M cells at 10^-5 M incubated for 48 hrs by sulforhodamine B assay; settings: read-out: GI
M14 = assay: Growth inhibition of human M14 cells at 10^-5 M incubated for 48 hrs by sulforhodamine B assay; settings: M14, 48 h, read-out: GI
SK-MEL-2 = assay: Growth inhibition of human SK-MEL-2 cells at 10^-5 M incubated for 48 hrs by sulforhodamine B assay; settings: SK-MEL-2, 48 h, read-out: GI
SK-MEL-28 = assay: Growth inhibition of human SK-MEL-28 cells at 10^-5 M incubated for 48 hrs by sulforhodamine B assay; settings: SK-MEL-28, 48 h, read-out: GI
SK-MEL-5 = assay: Growth inhibition of human SK-MEL-5 cells at 10^-5 M incubated for 48 hrs by sulforhodamine B assay; settings: SK-MEL-5, 48 h, read-out: GI
UACC-62 = assay: Growth inhibition of human UACC62 cells at 10^-5 M incubated for 48 hrs by sulforhodamine B assay; settings: UACC-62, 48 h, read-out: GI
IGROV-1 = assay: Growth inhibition of human IGROV1 cells at 10^-5 M incubated for 48 hrs by sulforhodamine B assay; settings: IGROV-1, 48 h, read-out: GI
OVCAR-8 = assay: Growth inhibition of human OVCAR8 cells at 10^-5 M incubated for 48 hrs by sulforhodamine B assay; settings: OVCAR-8, 48 h, read-out: GI
SK-OV-3 = assay: Growth inhibition of human SKOV3 cells at 10^-5 M incubated for 48 hrs by sulforhodamine B assay; settings: SK-OV-3, 48 h, read-out: GI
786-0 = assay: Growth inhibition of human 786-0 cells at 10^-5 M incubated for 48 hrs by sulforhodamine B assay; settings: 786-0, 48 h, read-out: GI
A498 = assay: Growth inhibition of human A498 cells at 10^-5 M incubated for 48 hrs by sulforhodamine B assay; settings: A498, 48 h, read-out: GI
ACHN = assay: Growth inhibition of human ACHN cells at 10^-5 M incubated for 48 hrs by sulforhodamine B assay; settings: read-out: GI
CAKI-1 = assay: Growth inhibition of human Caki1 cells at 10^-5 M incubated for 48 hrs by sulforhodamine B assay; settings: CAKI-1, 48 h, read-out: GI
RXF 393 = assay: Growth inhibition of human RXF393 cells at 10^-5 M incubated for 48 hrs by sulforhodamine B assay; settings: RXF 393, 48 h, read-out: GI
TK-10 = assay: Growth inhibition of human TK10 cells at 10^-5 M incubated for 48 hrs by sulforhodamine B assay; settings: TK-10, 48 h, read-out: GI
UO-31 = assay: Growth inhibition of human UO31 cells at 10^-5 M incubated for 48 hrs by sulforhodamine B assay; settings: UO-31, 48 h, read-out: GI
PC-3 = assay: Growth inhibition of human PC3 cells at 10^-5 M incubated for 48 hrs by sulforhodamine B assay; settings: PC-3, 48 h, read-out: GI
MDA-MB-231 = assay: Growth inhibition of human MDA-MB-231 cells at 10^-5 M incubated for 48 hrs by sulforhodamine B assay; settings: MDA-MB-231, 48 h, read-out: GI
Hs-578T = assay: Growth inhibition of human Hs 578T cells at 10^-5 M incubated for 48 hrs by sulforhodamine B assay; settings: read-out: GI
BT-549 = assay: Growth inhibition of human BT549 cells at 10^-5 M incubated for 48 hrs by sulforhodamine B assay; settings: BT-549, 48 h, read-out: GI
T47D = assay: Growth inhibition of human T47D cells at 10^-5 M incubated for 48 hrs by sulforhodamine B assay; settings: read-out: GI
MDA-MB-468 = assay: Growth inhibition of human MDA-MB-468 cells at 10^-5 M incubated for 48 hrs by sulforhodamine B assay; settings: MDA-MB-468, 48 h, read-out: GI

SMILES	inhibition of growth at 10 µM (HL-60(TB))	inhibition of growth at 10 µM (K562)	inhibition of growth at 10 µM (MOLT-4)	inhibition of growth at 10 µM (SR)	inhibition of growth at 10 µM (HOP-62)	inhibition of growth at 10 µM (NCI-H226)	inhibition of growth at 10 µM (NCI-H23)	inhibition of growth at 10 µM (NCI-H322M)	inhibition of growth at 10 µM (NCI-H460)	inhibition of growth at 10 µM (COLO 205)	inhibition of growth at 10 µM (HCT-15)	inhibition of growth at 10 µM (SW-620)	inhibition of growth at 10 µM (SF-268)	inhibition of growth at 10 µM (SF-295)	inhibition of growth at 10 µM (SF-539)	inhibition of growth at 10 µM (SNB-19)	inhibition of growth at 10 µM (Malme-3M)	inhibition of growth at 10 µM (M14)	inhibition of growth at 10 µM (SK-MEL-2)	inhibition of growth at 10 µM (SK-MEL-28)	other results
S=C1Nc2c(sc3ccc(Cl)cc23)C(c2cccc(Br)c2)N1 (centres undefined)	-6.42%	1.5%	11.5%	16.3%	15.5%	15.2%	12.2%	5.66%	7.39%	-2.63%	0.95%	-1.6%	1.41%	1%	1%	2.38%	-1%	6.42%	-6.36%	-15.7%	inhibition of growth at 10 µM (SK-MEL-5): 3.95%; inhibition of growth at 10 µM (UACC-62): 13%; inhibition of growth at 10 µM (IGROV-1): 22.6%; inhibition of growth at 10 µM (OVCAR-8): 3.39%; inhibition of growth at 10 µM (SK-OV-3): 10.4%; inhibition of growth at 10 µM (786-0): -0.33%; inhibition of growth at 10 µM (A498): 31.7%; inhibition of growth at 10 µM (ACHN): 4.77%; inhibition of growth at 10 µM (CAKI-1): 19.2%; inhibition of growth at 10 µM (RXF 393): -7.19%; inhibition of growth at 10 µM (TK-10): -18.3%; inhibition of growth at 10 µM (UO-31): -18.3%; inhibition of growth at 10 µM (PC-3): 6.34%; inhibition of growth at 10 µM (MDA-MB-231): 9.68%; inhibition of growth at 10 µM (Hs-578T): 4.32%; inhibition of growth at 10 µM (BT-549): -10.2%; inhibition of growth at 10 µM (T47D): 24.5%; inhibition of growth at 10 µM (MDA-MB-468): -5.67%
N#Cc1cnn(C2=Nc3c(sc4ccc(Cl)cc34)C(c3cccc([N+](=O)[O-])c3)N2)c1N (centres undefined)	-5.54%	1.28%	8.24%	-0.62%	5.61%	19.2%	19.8%	6.34%	-1.07%	-3.42%	-4.58%	-4.05%	5.36%	-2.52%	2.87%	-2.52%	-6.04%	-2.52%	-5.14%	-13.6%	inhibition of growth at 10 µM (SK-MEL-5): 4.88%; inhibition of growth at 10 µM (UACC-62): 7.54%; inhibition of growth at 10 µM (IGROV-1): 23.1%; inhibition of growth at 10 µM (OVCAR-8): -2.67%; inhibition of growth at 10 µM (SK-OV-3): 5.04%; inhibition of growth at 10 µM (786-0): 1%; inhibition of growth at 10 µM (A498): -6.43%; inhibition of growth at 10 µM (ACHN): 15.2%; inhibition of growth at 10 µM (CAKI-1): -3.28%; inhibition of growth at 10 µM (RXF 393): 4.09%; inhibition of growth at 10 µM (TK-10): 25.1%; inhibition of growth at 10 µM (UO-31): 41.2%; inhibition of growth at 10 µM (PC-3): 11%; inhibition of growth at 10 µM (MDA-MB-231): 22.9%; inhibition of growth at 10 µM (Hs-578T): 3.32%; inhibition of growth at 10 µM (BT-549): -5.52%; inhibition of growth at 10 µM (T47D): 10.1%; inhibition of growth at 10 µM (MDA-MB-468): 3.7%
S=C1Nc2c(sc3ccc(Cl)cc23)C(c2ccc3ccccc3c2)N1 (centres undefined)	-2.53%	4%	7.43%	19.4%	10.1%	20.6%	15.2%	13.9%	6.2%	0.1%	2.67%	3.99%	10.3%	3.23%	3.23%	7.85%	18.4%	7.85%	9.98%	-2.16%	inhibition of growth at 10 µM (SK-MEL-5): 5.24%; inhibition of growth at 10 µM (UACC-62): 13.9%; inhibition of growth at 10 µM (IGROV-1): 16.8%; inhibition of growth at 10 µM (OVCAR-8): 8.23%; inhibition of growth at 10 µM (SK-OV-3): 12.2%; inhibition of growth at 10 µM (786-0): 4.93%; inhibition of growth at 10 µM (A498): 14.9%; inhibition of growth at 10 µM (ACHN): 12.4%; inhibition of growth at 10 µM (CAKI-1): 27.5%; inhibition of growth at 10 µM (RXF 393): -0.71%; inhibition of growth at 10 µM (TK-10): -25.5%; inhibition of growth at 10 µM (UO-31): -25.5%; inhibition of growth at 10 µM (PC-3): 14.5%; inhibition of growth at 10 µM (MDA-MB-231): 23%; inhibition of growth at 10 µM (Hs-578T): 8.86%; inhibition of growth at 10 µM (BT-549): -9.88%; inhibition of growth at 10 µM (T47D): 22.5%; inhibition of growth at 10 µM (MDA-MB-468): 4.47%
